Measurements from patent US9095581B2, “Combinations of MEK inhibitors and Raf kinase inhibitors and uses thereof” (Ardea Biosciences, Inc., priority 2008, dated 2015).

Experiments:
[1] = tested on: Hep3B cells; experiment: In vitro cell proliferation assay of Hep3B cell line, compound A with other anticancer agents (Example 6B); format: cell-based, human; conditions: agent in combination with compound A; 3, 4 or 6 days
Protocol: Cell culture/Growth Inhibition Assay: Human hepatocelluar carcinoma Hep3B cells were obtained from ATCC (Manassas, Va.). Hep3B cells were maintained in EMEM supplemented with 10% fetal bovine serum, penicillin (100 U/ml), and streptomycin (100 μg/ml). Cells were maintained at 37° C., 5% CO2, and 100% humidity. For cell proliferation experiments, cells were plated in white 96-well plates with clear bases at either 3000 cells/100 μl/well, 2000 cells/100 μl/well or 1000 cells/100 μl/well and treated as follows for 3 days, 4 days, or 6 days respectively. […] Following incubation for the indicated time at 37° C., ATP levels were determined using CellTiterGlo (Promega, Madison, Wis.) and reading luminescence values using a Lit Biosystems Analyst HT (Sunnyvale, Calif.). The ATP level for each dose combination was determined in triplicate using independent wells, and the experiment was performed several times. […] For comparison, the dose response for each single agent was also determined. The relative cell proliferation number was determined with the following formula: […]

[2] = tested on: Hep3B Hepatoma cells; experiment: In vitro cell proliferation assay of Hep3B cell line (CellTiterGlo ATP levels); format: cell-based, human; conditions: sorafenib alone
Protocol: The effect of compound A in combination with sorafenib was examined in a cell line derived from a human hepatocellular carcinoma in a cell proliferation assay.
Cell culture/Growth Inhibition Assay: Human hepatocelluar carcinoma Hep3B cells were obtained from ATCC (Manassas, Va.). Hep3B cells were maintained in EMEM supplemented with 10% fetal bovine serum, penicillin (100 U/ml), and streptomycin (100 μg/ml). Cells were maintained at 37° C., 5% CO2, and 100% humidity. For cell proliferation experiments, cells were plated in white 96-well plates with clear bases at either 3000 cells/100 μl/well, 2000 cells/100 μl/well or 1000 cells/100 μl/well and treated as follows for 3 days, 4 days, or 6 days respectively. After 24 hr, cell media was removed and replaced with media containing combinations of compound A of formula I and sorafenib. Following incubation for the indicated time at 37° C., ATP levels were determined using CellTiterGlo (Promega, Madison, Wis.) and reading luminescence values using a LJL Biosystems Analyst FIT (Sunnyvale, Calif.). The ATP level for each dose combination was determined in triplicate using independent wells, and the experiment was performed several times. […] For comparison, the dose response for each single agent was also determined. The relative cell proliferation number was determined with the following formula: […]

[3] = tested on: human gastric adenocarcinoma cell line AGS; experiment: In vitro cell proliferative activity of AGS cell line (CellTiterGlo ATP levels); format: cell-based
Protocol: The effect of compound A in combination with sorafenib was examined in a cell line derived from a human gastric adenocarcinoma, in a cell proliferation assay.
Cell culture/Growth Inhibition Assay: The human gastric adenocarcinoma cell line AGS was obtained from ATCC (Manassas, Va.). AGS cells were maintained in DMEM/F12 supplemented with 10% fetal bovine serum, penicillin (100 U/ml), and streptomycin (100 μg/ml). Cells were maintained at 37° C., 5% CO2, and 100% humidity. For cell proliferation experiments, cells were plated in white 96-well plates with clear bases at 3000 cells/100 μl/well. After 24 hr, cell media was removed and replaced with media containing combinations of 621119 and sorafenib. Following incubation for 48 hours at 37° C., ATP levels were determined using CellTiterGlo (Promega, Madison, Wis.) and reading luminescence values using a LJL Biosystems Analyst HT (Sunnyvale, Calif.). The ATP level for each dose combination was determined in triplicate using independent wells, and the experiment was performed several times. For synergy experiments, either 621119 or sorafenib was dosed at a fixed, subefficacious dose, while the second agent (sorafenib or 621119 respectively) was added across a range of doses. For comparison, the dose response for each single agent was also determined. The relative cell proliferation number was determined with the following formula: […]

Nc1ccn([C@@H]2O[C@H](CO)[C@@H](O)C2(F)F)c(=O)n1 [Gemcitabine]
synergy with compound A in cell proliferation [1]: no synergy

CS(=O)(=O)CCNCc1ccc(-c2ccc3ncnc(Nc4ccc(OCc5cccc(F)c5)c(Cl)c4)c3c2)o1 [Lapatinib]
synergy with compound A in cell proliferation [1]: no synergy

CNC(=O)c1cc(Oc2ccc(NC(=O)Nc3ccc(Cl)c(C(F)(F)F)c3)cc2)ccn1 [sorafenib, 4-[4-[[4-chloro-3-(trifluoromethyl)phenyl]carbamoylamino]phenoxy]-N-methyl-pyridine-2-carboxamide]
inhibition of cell proliferation ([2]; 2 μM and lower, after 4 days (FIG. 8C)): little or no inhibition
inhibition of cell proliferation ([2]; 5 μM and lower, after 3 days (FIG. 8A)): little activity
inhibition of cell proliferation (cell number relative to vehicle) ([3]; sorafenib alone at 5 uM, after 48 hours (FIG. 9B)): little activity
inhibition of cell proliferation (relative cell number) ([3]; sorafenib alone, 5 uM and lower, after 48 hours (FIG. 9A)): little activity

O=C(CCCCCCC(=O)Nc1ccccc1)NO [Vorinostat]
synergy with compound A in cell proliferation [1]: no synergy

CCCCCCCCCCCCCCCCCCOP(=O)([O-])OC1CC[N+](C)(C)CC1 [Perifosine]
synergy with compound A in cell proliferation [1]: no synergy

Cc1ccc(NC(=O)c2ccc(CN3CCN(C)CC3)cc2)cc1Nc1nccc(-c2cccnc2)n1 [Imatinib]
synergy with compound A in cell proliferation [1]: no synergy
